Measured values reported in patent publication US7741341B2, “Benzimidazole-derivatives as factor Xa inhibitors” (sanofi-aventis Deutschland GmbH, priority 2003, dated 2010).
pKi: −log10 of the molar value.

Target: T1, human factor Xa (Homo sapiens, UniProt P00742)
T1 construct: human factor Xa (Enzyme Research Laboratories, Inc; South Bend, Ind.); purchased Enzyme Research Laboratories, Inc; South Bend, Ind
Assay: Factor Xa assay (chromogenic, substrate S-2765)
Type: biochemical
Conditions: read-out: Ki(FXa)
How it was run: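 Purified human factor Xa (0.5 nM final) in TBS-PEG was preincubated 10 min with compound in DMSO-containing buffer. The reaction was started with chromogenic substrate S-2765 at 140 μM. IC50 was taken from the concentration series.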

T1 sequence (P00742 235-488 limits assumed): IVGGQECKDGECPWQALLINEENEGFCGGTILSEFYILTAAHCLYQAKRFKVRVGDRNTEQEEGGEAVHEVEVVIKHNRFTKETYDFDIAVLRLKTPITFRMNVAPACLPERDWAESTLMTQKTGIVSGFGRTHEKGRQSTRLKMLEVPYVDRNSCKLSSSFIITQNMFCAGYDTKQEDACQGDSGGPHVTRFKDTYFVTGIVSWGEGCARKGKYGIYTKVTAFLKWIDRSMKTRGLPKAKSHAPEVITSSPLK
T1 sequence (P00742 41-179 partner limits assumed): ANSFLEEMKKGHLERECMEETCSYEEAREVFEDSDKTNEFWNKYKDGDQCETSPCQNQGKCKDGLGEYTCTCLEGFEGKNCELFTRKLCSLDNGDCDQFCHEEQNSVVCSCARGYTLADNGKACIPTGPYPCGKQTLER

| Structure (SMILES) | pKi |
| --- | --- |
| CC(C)N1CCC(NC(=O)c2nc3c(C(=O)N4CCC(O)CC4)cccc3n2Cc2cc(-c3ccc(Cl)s3)on2)CC1 [Example 91, 1-[5-(5-Chloro-thiophen-2-yl)-isoxazol-3-ylmethyl]-4-(4-hydroxy-piperidine-1-carbonyl)-1H-benzoimidazole-2-carboxylic acid (1-isopropyl-piperidin-4-yl)-amide] | 7.68 |
| CC(C)N1CCC(NC(=O)c2nc3c(c(=O)n(C)c(=O)n3C)n2Cc2cc(-c3ccc(Cl)s3)on2)CC1 [Example 92, 7-[5-(5-Chloro-thiophen-2-yl)-isoxazol-3-ylmethyl]-1,3-dimethyl-2,6-dioxo-2,3,6,7-tetrahydro-1H-purine-8-carboxylic acid (1-isopropyl-piperidin-4-yl)-amide] | 7.65 |
| CC(C)N1CCC(NC(=O)c2nc3c(C(=O)NCCO)scc3n2Cc2cc(-c3ccc(Cl)s3)on2)CC1 [Example 102, 3-[5-(5-Chloro-thiophen-2-yl)-isoxazol-3-ylmethyl]-3H-thieno[3,4-d]imidazole-2,6-dicarboxylic acid 6-[(2-hydroxy-ethyl)-amide]2-[(1-isopropyl-piperidin-4-yl)-amide]] | 8.60 |
| CC(C)N1CCC(NC(=O)c2nc3c(C(=O)N4CCCOCC4)scc3n2CC(=O)Nc2ccc(Cl)cn2)CC1 [Example 104, 3-[(5-Chloro-pyridin-2-ylcarbamoyl)-methyl]-6-([1,4]oxazepane-4-carbonyl)-3H-thieno[3,4-d]imidazole-2-carboxylic acid (1-isopropyl-piperidin-4-yl)-amide] | 7.70 |
| COC(=O)c1sc(OCC(F)(F)F)c2nc(C(=O)NC3CCN(C(C)C)CC3)n(Cc3cc(-c4ccc(Cl)s4)on3)c12 [Example 105, 3-[5-(5-Chloro-thiophen-2-yl)-isoxazol-3-ylmethyl]-2-(1-isopropyl-piperidin-4-ylcarbamoyl)-6-(2,2,2-trifluoro-ethoxy)-3H-thieno[3,4-d]imidazole-4-carboxylic acid methyl ester] | 4.26 |
| COCCOc1cccc2c1nc(C(=O)NC1CCN(C(C)C)CC1)n2CC(=O)Nc1ccc(Cl)cn1 [Example 108, 1-[(5-Chloro-pyridin-2-ylcarbamoyl)-methyl]-4-(2-methoxy-ethoxy)-1H-benzoimidazole-2-carboxylic acid (1-isopropyl-piperidin-4-yl)-amide] | 8.19 |
| CCOCCOc1cccc2c1nc(C(=O)NC1CCN(C(C)C)CC1)n2CC(=O)Nc1ccc(Cl)cn1 [Example 109, 1-[(5-Chloro-pyridin-2-ylcarbamoyl)-methyl]-4-(2-ethoxy-ethoxy)-1H-benzoimidazole-2-carboxylic acid (1-isopropyl-piperidin-4-yl)-amide] | 8.46 |
| CC(C)N1CCC(NC(=O)c2nc3c(OCCO)cccc3n2CC(=O)Nc2ccc(Cl)cn2)CC1 [Example 110, 1-[(5-Chloro-pyridin-2-ylcarbamoyl)-methyl]-4-(2-hydroxy-ethoxy)-1H-benzoimidazole-2-carboxylic acid (1-isopropyl-piperidin-4-yl)-amide] | 8.40 |
